# From patent US6605634B2 (Amgen, Inc., priority 1996, dated 2003)
# System: production of tumor necrosis factor (TNF) by monocytes activated with bacterial lipopolysaccharide (LPS)
# Experiment: Lipopolysaccharide-activated Monocyte TNF Production Assay
# Format: cell-based
# Details: Homo sapiens, TNF in culture supernatants by ELISA, read-out: IC50 (concentration of test compounds causing a 50% reduction in TNF production)
# Method: Lipopolysaccharide-activated Monocyte TNF Production Assay
# Test compounds were evaluated in vitro for the ability to inhibit the production of tumor necrosis factor (TNF) by monocytes activated with bacterial lipopolysaccharide (LPS). Fresh residual source leukocytes (a byproduct of plateletpheresis) were obtained from the local blood bank and peripheral blood mononuclear cells (PBMCs) were isolated by density gradient centrifugation on Ficol-Paque Plus (Pharmacia). PBMCs were suspended at 2×10^6/ml in DMEM supplemented to contain 2% FCS (10 mM), 0.3 mg/ml glutamate, 100 U/ml penicillin G and […] streptomycin sulfate (complete media). Cells were plated into Falcon flatbottom 96 well culture plates (200 μl/well) and cultured overnight at 37° C. and 6% CO2. Nonadherent cells were removed by washing with 200 μl/well of fresh medium. Wells containing adherent cells (˜70% monocytes) were replenished with 100 μl of fresh medium.
# Preparation of Test Compound Stock Solutions
# Test compounds were dissolved in […]. Compound stock solutions were prepared to an initial concentration of […]. Stocks were diluted initially to 20-200 μM in complete media. Nine two-fold serial dilutions of each compound were then prepared in complete medium.
# Treatment of Cells with Test Compounds and Activation of TNF Production with Lipopolysaccharide
# One hundred microliters of each test compound dilution were added to microtiter wells containing adherent monocytes and 100 μl complete medium. Monocytes were cultured with test compounds for 60 min at which time 25 μl of complete medium containing 30 ng/ml lipopolysaccharide from E. coli K532 were added to each well. Cells were cultured an additional 4 hrs. Culture supernatants were then removed and TNF present in the supernatants was quantified using an ELISA.
# Flat bottom 96 well Coming High Binding ELISA plates were coated overnight (4° C.) with 150 μL/well of 3 μg/ml murine anti-human TNFa MAb (R&D Systems #MAB210). Wells were then blocked 1 h at room temperature with 200 μL/well of CaCl2-free ELISA buffer supplemented to contain 20 mg/ml BSA (standard ELISA buffer: […], 150 mM NaCl, 2 mM CaCl2, 0.15 mM thimerosal, pH 7.4). Plates were washed and replenished with 100 μl of test supernatants (diluted 1:3) or standards. Standards consisted of eleven 1.5-fold serial dilutions from a stock of 1 ng/ml recombinant human TNF (R&D Systems). Plates were incubated at room temperature for 1 h on orbital shaker (300 rpm), washed and replenished with 100 μl/well of 0.5 jig/ml goat anti-human TNFa (R&D systems #AB-210-NA) biotinylated at a 4:1 ratio. Plates were incubate for 40 min, washed and replenished with 100 μl/well of alkaline phosphatase-conjugated streptavidin (Jackson ImmunoResearch #016-050-084) at 0.02 μg/ml. Plates were incubated 30 min, washed and replenished with 200 μl well of 1 mg/ml of p-nitrophenyl phosphate. After 30 min, plates were read at 405 nm on a Vmax plate reader.
# Standard curve data were fit to a second order polynomial and unknown TNF-a concentrations determined from their OD by solving this equation for concentration. TNF concentrations were then plotted Vs test compound concentration using a second order polynomial. This equation was then used to calculate the concentration of test compounds causing a 50% reduction in TNF production.
row,SMILES,IC50
1,"NC(Cc1ccccc1)C(=O)Nc1ccc2c(-c3ccncc3)c(-c3ccc(F)cc3)[nH]c2n1 (racemic) [Compound 87, 6-(3′-phenyl-1′-oxo-2′-D,L-aminopropylamino)-3-(4-pyridyl)-2-(4-fluorophenyl)-7-aza-indole]",< 20 µM
2,"CC(CNc1ccc2c(-c3ccncc3)c(-c3ccc(F)cc3)[nH]c2n1)c1ccccc1 (racemic) [Compound 147, 6-(2′(R,S)-phenylpropylamino)-3-(4-pyridyl)-2-(4-fluorophenyl)-7-aza-indole]",< 20 µM
3,"CCCCC(CC)CNc1ccc2c(-c3ccncc3)c(-c3ccc(F)cc3)[nH]c2n1 (racemic) [Compound 148, 6-(2′(R,S)-ethylhexylamino)-3-(4-pyridyl)-2-(4-fluorophenyl)-7-aza-indole]",< 20 µM
4,"Fc1ccc(-c2[nH]c3ccccc3c2-c2ccncc2)cc1 [Compound 3, 3-(4-pyridyl)-2-(4-fluorophenyl)indole]",< 20 µM
5,"Nc1ccc2c(-c3ccncc3)c(-c3ccc(F)cc3)[nH]c2n1 [Compound 17, 6-Amino-3-(4-pyridyl)-2-(4-fluorophenyl)-7-aza-indole]",< 1 µM
6,"Nc1ccc2c(-c3ccc(F)cc3)c(-c3ccncc3)[nH]c2n1 [Compound 18, 6-Amino-3-(4-fluorophenyl)-2-(4-pyridyl)-7-aza-indole]",< 20 µM
7,"CC(C)(C)OC(=O)NCCCC(=O)Nc1ccc2c(-c3ccncc3)c(-c3ccc(F)cc3)[nH]c2n1 [Compound 21, 6-(4′-t-butoxycarbonylamino-1′-oxo-butylamino)-3-(4-pyridyl)-2-(4-fluorophenyl)-7-aza-indole]",< 20 µM
8,"NCCCC(=O)Nc1ccc2c(-c3ccncc3)c(-c3ccc(F)cc3)[nH]c2n1 [Compound 22, 6-(4′-amino-1′-oxo-butylamino)-3-(4-pyridyl)-2-(4-fluorophenyl)-7-aza-indole]",< 20 µM
9,"Nc1nc2[nH]c(-c3ccc(F)cc3)c(-c3ccncc3)c2cc1Br [Compound 27, 6-Amino-5-bromo-3-(4-pyridyl)-2-(4-fluorophenyl)-7-aza-indole]",< 20 µM
10,"Nc1nc2[nH]c(-c3ccc(F)cc3)c(-c3ccncc3)c2cc1F [Compound 28, 6-Amino-5-fluoro-3-(4-pyridyl)-2-(4-fluorophenyl)-7-aza-indole]",< 20 µM
11,"CC(C)(C)OC(=O)NCC(=O)Nc1ccc2c(-c3ccncc3)c(-c3ccc(F)cc3)[nH]c2n1 [Compound 29, 6-(2′-t-butoxycarbonylamino-1′-oxo-ethylamino)-3-(4-pyridyl)-2-(4-fluorophenyl)-7-aza-indole]",< 20 µM
12,"NC(=O)NCCC[C@H](N)C(=O)Nc1ccc2c(-c3ccncc3)c(-c3ccc(F)cc3)[nH]c2n1 [Compound 65, 6-(5′-ureido-1′-oxo-2′-aminopentylamino)-3-(4-pyridyl)-2-(4-fluorophenyl)-7-aza-indole]",< 20 µM
13,"CC(C)(C)OC(=O)NCCCC[C@H](NC(=O)OC(C)(C)C)C(=O)Nc1ccc2c(-c3ccncc3)c(-c3ccc(F)cc3)[nH]c2n1 [Compound 66, 6-(6′-t-butoxycarbonylamino-1′-oxo-2′-t-butoxycarbonylaminohexylamino)-3-(4-pyridyl)-2-(4-fluorophenyl)-7-aza-indole]",< 20 µM
14,"NCCCC[C@H](N)C(=O)Nc1ccc2c(-c3ccncc3)c(-c3ccc(F)cc3)[nH]c2n1 [Compound 67, 6-(6′-amino-1′-oxo-2′-aminohexylamino)-3-(4-pyridyl)-2-(4-fluorophenyl)-7-aza-indole]",< 20 µM
15,"CC(C)(C)OC(=O)NCCC[C@H](NC(=O)OC(C)(C)C)C(=O)Nc1ccc2c(-c3ccncc3)c(-c3ccc(F)cc3)[nH]c2n1 [Compound 68, 6-(5′-t-butoxycarbonylamino-1′-oxo-2′-t-butoxycarbonylaminopentylamino)-3-(4-pyridyl)-2-(4-fluorophenyl)-7-aza-indole]",< 20 µM
16,"NCCC[C@H](N)C(=O)Nc1ccc2c(-c3ccncc3)c(-c3ccc(F)cc3)[nH]c2n1 [Compound 69, 6-(5′-amino-1′-oxo-2′-aminopentylamino)-3-(4-pyridyl)-2-(4-fluorophenyl)-7-aza-indole]",< 20 µM

row,SMILES,IC50
1,"N[C@@H](Cc1ccc(I)cc1)C(=O)Nc1ccc2c(-c3ccncc3)c(-c3ccc(F)cc3)[nH]c2n1 [Compound 71, 6-(3′-(4-iodophenyl)-1′-oxo-2′-aminopropylamino)-3-(4-pyridyl)-2-(4-fluorophenyl)-7-aza-indole]",< 1 µM
2,"CC(C)[C@H](N)C(=O)Nc1ccc2c(-c3ccncc3)c(-c3ccc(F)cc3)[nH]c2n1 [Compound 73, 6-(3′-Methyl-1′-oxo-2′-aminobutylamino)-3-(4-pyridyl)-2-(4-fluorophenyl)-7-aza-indole]",< 20 µM
3,"CC(C)(C)C[C@H](N)C(=O)Nc1ccc2c(-c3ccncc3)c(-c3ccc(F)cc3)[nH]c2n1 [Compound 75, 6-(4′,4′-Dimethyl-1′-oxo-2′-aminopentylamino)-3-(4-pyridyl)-2-(4-fluorophenyl)-7-aza-indole]",< 20 µM
4,"NCCCCC(=O)Nc1ccc2c(-c3ccncc3)c(-c3ccc(F)cc3)[nH]c2n1 [Compound 77, 6-(5′-amino-1′-oxo-pentylamino)-3-(4-pyridyl)-2-(4-fluorophenyl)-7-aza-indole]",< 20 µM
5,"NCCCCCC(=O)Nc1ccc2c(-c3ccncc3)c(-c3ccc(F)cc3)[nH]c2n1 [Compound 79, 6-(6′-amino-1′-oxo-hexylamino)-3-(4-pyridyl)-2-(4-fluorophenyl)-7-aza-indole]",< 20 µM
6,"N[C@@H](CC1CCCCC1)C(=O)Nc1ccc2c(-c3ccncc3)c(-c3ccc(F)cc3)[nH]c2n1 [Compound 81, 6-(3′-cyclohexyl-1′-oxo-2′-aminopropylamino)-3-(4-pyridyl)-2-(4-fluorophenyl)-7-aza-indole]",< 20 µM
7,"N[C@@H](CCC(=O)O)C(=O)Nc1ccc2c(-c3ccncc3)c(-c3ccc(F)cc3)[nH]c2n1 [Compound 83, 6-(4′-carboxy-1′-oxo-2′-aminobutylamino)-3-(4-pyridyl)-2-(4-fluorophenyl)-7-aza-indole]",< 20 µM
8,"CC(O)[C@H](N)C(=O)Nc1ccc2c(-c3ccncc3)c(-c3ccc(F)cc3)[nH]c2n1 (stereo partly shown) [Compound 85, 6-(3′-hydroxy-1′-oxo-2′-aminobutylamino)-3-(4-pyridyl)-2-(4-fluorophenyl)-7-aza-indole]",< 20 µM
9,"N[C@@H](Cc1ccc(O)cc1)C(=O)Nc1ccc2c(-c3ccncc3)c(-c3ccc(F)cc3)[nH]c2n1 [Compound 89, 6-(3′-(4-hydroxyphenyl)-1′-oxo-2′-aminopropylamino)-3-(4-pyridyl)-2-(4-fluorophenyl)-7-aza-indole]",< 1 µM
10,"NCCC(=O)Nc1ccc2c(-c3ccncc3)c(-c3ccc(F)cc3)[nH]c2n1 [Compound 91, 6-(3′-amino-1′-oxo-propylamino)-3-(4-pyridyl)-2-(4-fluorophenyl)-7-aza-indole]",< 20 µM
11,"NCC(=O)Nc1ccc2c(-c3ccncc3)c(-c3ccc(F)cc3)[nH]c2n1 [Compound 92, 6-(2′-amino-1′-oxo-ethylamino)-3-(4-pyridyl)-2-(4-fluorophenyl)-7-aza-indole]",< 1 µM
12,"CS(=O)(=O)Nc1ccc2c(-c3ccncc3)c(-c3ccc(F)cc3)[nH]c2n1 [Compound 93, 6-(methylsulfonylamino)-3-(4-pyridyl)-2-(4-fluorophenyl)-7-aza-indole]",< 20 µM
13,"CC(=O)Nc1ccc2c(-c3ccncc3)c(-c3ccc(F)cc3)[nH]c2n1 [Compound 94, 6-(1′-oxo-ethylamino)-3-(4-pyridyl)-2-(4-fluorophenyl)-7-aza-indole]",< 20 µM
14,"O=S(=O)(Nc1ccc2c(-c3ccncc3)c(-c3ccc(F)cc3)[nH]c2n1)c1ccc(Cl)s1 [Compound 95, 6-(2′-(5-chlorothienyl)sulfonylamino)-3-(4-pyridyl)-2-(4-fluorophenyl)-7-aza-indole]",< 20 µM
15,"O=C(CCN1C(=O)c2ccccc2C1=O)Nc1ccc2c(-c3ccncc3)c(-c3ccc(F)cc3)[nH]c2n1 [Compound 98, 6-(3′-N-phthaloyl-1′-oxo-propylamino)-3-(4-pyridyl)-2-(4-fluorophenyl)-7-aza-indole]",< 20 µM
